Among the data in patent publication US7951826B2, “Pyrrolidine derivatives as histamine H3 receptor antagonists” (Eli Lilly and Company, priority 2005, dated 2011) are Ki values, retold here.

The target of this experiment is T1, H3R membranes (H3R8-expressing HEK293 cell line) (Homo sapiens, UniProt Q9Y5N1).
T1 construct: expressed in transfected cells; pcDNA3.1(+) vector, G418 selection)
The experiment is described as follows: [35S] GTP gamma [S] binding assay. It is filed as biochemical. Particulars: inhibition of [35S]GTP gamma S binding to H3R membranes in presence of agonist R(-)alpha methylhistamine. On the procedure:
Membranes isolated as described in (Preparation of Histamine Receptor Subtype Membranes) are used in a [35S]GTPχS functional assay. Binding of [35S]GTPχS to membranes indicates agonist activity. Compounds of the invention of Formula I or Formula II are tested for their ability to inhibit binding in the presence of agonists. Alternately, the same transfected cell lines are used for a cAMP assay wherein H3R agonists inhibit forskolin-activated synthesis of cAMP. Compounds of Formula I or Formula II are tested for their ability to permit forskolin-stimulated cAMP synthesis in the presence of agonist.
cDNA for the human histamine 3 receptor is cloned and expressed as described in (A. Preparation H1R membranes), above. Transfected cells are selected using G418 ([…]), grown, and tested for histamine binding by the SPA described above. For total binding, cells are assayed in a SPA reaction described above containing 50 mM Tris-HCL (assay buffer), pH 7.6, 1 mg wheat germ agglutinin SPA beads (Amersham Pharmacia Biotech, #RPNQ0001), and 1 nM (^3H)-n-alpha-methylhistamine (NEN, NET1027) (total volume per well=200 μl). Thioperimide is added to determine non-specific binding. […]
Antagonist activity of selected compounds is tested for inhibition of [35S] […] Plates are counted in Wallac Trilux 1450 Microbeta scintillation counter for 1 minute. […]
A general note: Binding of GTPγS marks nucleotide exchange on a G protein.

T1 sequence (Q9Y5N1 whole entry): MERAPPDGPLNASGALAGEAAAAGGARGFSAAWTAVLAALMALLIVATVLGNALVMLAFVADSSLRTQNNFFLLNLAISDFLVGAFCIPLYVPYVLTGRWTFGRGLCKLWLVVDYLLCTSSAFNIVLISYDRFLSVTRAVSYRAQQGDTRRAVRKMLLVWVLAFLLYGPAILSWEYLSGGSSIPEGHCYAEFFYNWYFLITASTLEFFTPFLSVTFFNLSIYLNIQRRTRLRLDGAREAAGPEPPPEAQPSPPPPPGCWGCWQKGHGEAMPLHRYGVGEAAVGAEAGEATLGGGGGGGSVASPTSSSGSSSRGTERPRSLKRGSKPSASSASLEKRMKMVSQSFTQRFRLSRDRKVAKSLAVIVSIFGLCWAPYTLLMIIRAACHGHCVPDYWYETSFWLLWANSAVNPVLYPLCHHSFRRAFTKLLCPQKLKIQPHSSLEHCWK

For `CCCCOc1ccc(C(=O)N2CCC[C@@H]2CN2CCCC2)cc1`, the Ki was found to be 145 nM.

In the case of `COc1ccc(C(=O)N2CCC[C@H]2CN2CCCC2)cc1`, the Ki was found to be 73.6 nM.

The term Ki denotes a measure of affinity in units of concentration, obtained from inhibition or displacement.
